Results from patent US20240181007A1, “COMPOSITIONS AND METHODS FOR TREATING PULMONARY HYPERTENSION” (Acceleron Pharma Inc., priority 2021, published 2024).

System: Obese ZSF1-SU rats
Assay: HFpEF induced PH rat model, obese ZSF1 rats challenged with semaxanib (Example 13)
Assay type: in vivo
Settings: 5 mpk s.c. twice weekly for 8 weeks from day 64 after semaxanib, relative to Obese ZSF1-SU/Veh
Experimental: The effects of an ActRIIA-mFc fusion polypeptide (SEQ ID NO: 56) was examined in a rat model of left ventricular diastolic dysfunction (also referred to as HFpEF) group 2 (subgroup 2.2) pulmonary hypertension (PH). In this model, ZSF1-Lepr^faLepr^cp/Crl rats were challenged with semaxanib (SU5416) to induce HFpEF-PH.
Twenty ZSF1 Lepr^faLepr^cp/Crl male […] (8 wks old) and ten lean rats were subcutaneously administered with a single dose of semaxanib (100 mg/kg) at day 0, and ten lean rats were included as normal control. Eight weeks after semaxanib (SU5416) treatment, twenty ZSF1 Lepr^faLepr^cp/Crl rats were randomized into two groups: i) ten rats were injected subcutaneously with vehicle control (phosphate buffered saline (PBS)), twice weekly for 8 weeks starting from day 64 after semaxanib treatment, “Obese ZSF1 Veh”; and ii) ten rats were injected subcutaneously with ActRIIA-mFc at a dose of 5 mpk twice weekly for 8 weeks starting from day 64 after semaxanib treatment, “Obese ZSF1 ActRIIA-mFc.” At the end of the study, echocardiography and pressure-volume catheter were performed to measure left and right ventricular remodeling and functional changes before animals were euthanized for heart and lung collection.
Prior to euthanization, in vivo cardiac function was assessed by transthoracic echocardiography (Acuson P300, 18 MHz linear transducer: Siemens) in lightly anesthetized rats as described. Echocardiographic assessments were conducted at week 8 (before therapy with ActRIIA-mFc or vehicle) and week 15 (after therapy) in each rat. From left ventricle short axis view, M-mode echocardiogram was acquired to measure interventricular septal thickness at end diastole (IVSd), left ventricular posterior wall thickness at end diastole (LVPWd), left ventricular end diastolic diameter (LVEDD), and left ventricular end systolic diameter (LVESD). Left ventricular mass (LVM) was assessed by the equation: 1.05 [(LVEDD+LVPTD+IVSd)^3-LVEDD^3]. Early diastolic filling peak velocity (E), early diastolic mitral annular velocity (E′), and isovolumetric relaxation time (IVRT) were measured from the medial or septal wall at the mitral valve level from tissue Doppler image. LV diastolic function was assessed by measuring the E/E′ ratio and IVRT. Pulmonary arterial acceleration time (PAAT), a parameter of right ventricular function, was measured. Tricuspid annular plane systolic excursion (TAPSE), a parameter of global right ventricular function, was also measured. RV free wall thickness (RVFWT) was measured using M-mode in a modified parasternal long-axis view through the aortic valve. Pulmonary artery acceleration time (PAAT) was measured as the time from start to peak velocity of blood flow in the lumen of the main pulmonary artery distal to the pulmonary valve as obtained from the pulse-wave doppler recording.
Sixteen weeks after semaxanib treatment, rats were anesthetized with ketamine (100 mg/kg) and xylazine (5 mg/kg) at the end of the experiment to evaluate cardiac and pulmonary hemodynamics. The respiration was supported by a small animal ventilator. Thoracotomy was made through 4-5 intercostal space, and the heart was exposed. […] Ventricular pressure and volume were calculated with LabChart 7 software. […] After finishing left ventricular measurements, the catheter was advanced to the aorta, arterial blood systolic and diastolic pressure was detected. […] Similarly, right atrial pressure was measured by moving the catheter from the right ventricle into atrium. […]

## ActRIIA-mFc: ActRIIA-mFc fusion polypeptide (SEQ ID NO: 56); extracellular domain fused to murine IgG2a Fc domain with a linker
FIG. 56
  PAAT: significantly increased PAAT
FIG. 57
  right ventricular systolic pressure (RVSP): significantly reduced right ventricular systolic pressure
FIG. 58
  RVWT: significantly reduced elevated RVWT
FIG. 59
  TAPSE: increased TAPSE
FIG. 60
  Fulton index (RV/(LV+S)): decreased Fulton index
